Key:
[1] = species: Homo sapiens; assay: Ratio of IC50 for human SERT to IC50 for human NET
[2] = molecular target: Sodium-dependent dopamine transporter (Homo sapiens) (UniProt Q01959); assay: Displacement of [3H]WIN-35428 from human recombinant DAT expressed in CHO cells at 10 uM; type: cell-based
[3] = molecular target: T1, Sodium-dependent noradrenaline transporter (Homo sapiens, UniProt P23975)
[4] = molecular target: T2, Sodium-dependent serotonin transporter (Homo sapiens, UniProt P31645); assay: Inhibition of serotonin uptake at human SERT expressed in JAR cells at 1 uM; type: cell-based
Target sequence in this assay (P31645 whole entry, looked up): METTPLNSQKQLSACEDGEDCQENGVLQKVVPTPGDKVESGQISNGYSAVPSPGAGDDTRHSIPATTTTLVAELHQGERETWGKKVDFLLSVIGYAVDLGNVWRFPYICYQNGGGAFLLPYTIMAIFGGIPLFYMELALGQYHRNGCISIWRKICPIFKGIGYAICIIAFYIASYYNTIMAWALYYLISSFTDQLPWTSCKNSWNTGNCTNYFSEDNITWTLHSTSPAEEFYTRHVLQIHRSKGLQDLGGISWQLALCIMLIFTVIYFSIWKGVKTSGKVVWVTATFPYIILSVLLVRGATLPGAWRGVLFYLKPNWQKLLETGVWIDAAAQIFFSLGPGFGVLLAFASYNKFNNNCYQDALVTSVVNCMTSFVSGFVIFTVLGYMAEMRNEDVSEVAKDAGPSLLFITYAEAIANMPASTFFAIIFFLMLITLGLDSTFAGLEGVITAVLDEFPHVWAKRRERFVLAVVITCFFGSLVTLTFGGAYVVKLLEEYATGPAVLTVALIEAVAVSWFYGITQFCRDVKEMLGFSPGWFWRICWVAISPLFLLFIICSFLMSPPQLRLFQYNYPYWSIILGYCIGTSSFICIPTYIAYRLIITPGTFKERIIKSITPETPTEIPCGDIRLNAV

[5] = molecular target: T2, Sodium-dependent serotonin transporter; assay: Inhibition of serotonin uptake at human SERT expressed in JAR cells at 10 uM; type: cell-based
Target sequence in this assay (P31645 whole entry, looked up): as above

[6] = molecular target: T2, Sodium-dependent serotonin transporter; type: cell-based, JAR
Target sequence in this assay (P31645 whole entry): as the sequence (P31645 whole entry, looked up) above

[7] = molecular target: T1, Sodium-dependent noradrenaline transporter; assay: Inhibition of norepinephrine uptake at human NET expressed in MDCK-Net6 cells at 1 uM; type: cell-based

Sequence of Sodium-dependent dopamine transporter (Homo sapiens) (Q01959 whole entry): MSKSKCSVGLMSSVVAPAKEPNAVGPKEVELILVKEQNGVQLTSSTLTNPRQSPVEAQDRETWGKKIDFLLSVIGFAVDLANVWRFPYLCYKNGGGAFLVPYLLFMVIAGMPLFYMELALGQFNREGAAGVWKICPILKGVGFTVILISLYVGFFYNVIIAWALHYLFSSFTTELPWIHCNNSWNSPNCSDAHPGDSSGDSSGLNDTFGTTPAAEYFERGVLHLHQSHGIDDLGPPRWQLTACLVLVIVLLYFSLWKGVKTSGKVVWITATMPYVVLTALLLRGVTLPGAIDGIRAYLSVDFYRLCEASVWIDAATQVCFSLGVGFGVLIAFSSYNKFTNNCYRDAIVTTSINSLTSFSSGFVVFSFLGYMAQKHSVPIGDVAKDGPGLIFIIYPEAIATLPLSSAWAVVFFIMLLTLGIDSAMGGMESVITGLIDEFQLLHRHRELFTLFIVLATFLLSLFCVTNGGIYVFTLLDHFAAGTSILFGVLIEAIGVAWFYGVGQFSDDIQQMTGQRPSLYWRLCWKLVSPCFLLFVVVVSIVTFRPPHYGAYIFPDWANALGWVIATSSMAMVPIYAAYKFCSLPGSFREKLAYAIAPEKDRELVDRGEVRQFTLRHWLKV
T1 sequence (P23975 whole entry): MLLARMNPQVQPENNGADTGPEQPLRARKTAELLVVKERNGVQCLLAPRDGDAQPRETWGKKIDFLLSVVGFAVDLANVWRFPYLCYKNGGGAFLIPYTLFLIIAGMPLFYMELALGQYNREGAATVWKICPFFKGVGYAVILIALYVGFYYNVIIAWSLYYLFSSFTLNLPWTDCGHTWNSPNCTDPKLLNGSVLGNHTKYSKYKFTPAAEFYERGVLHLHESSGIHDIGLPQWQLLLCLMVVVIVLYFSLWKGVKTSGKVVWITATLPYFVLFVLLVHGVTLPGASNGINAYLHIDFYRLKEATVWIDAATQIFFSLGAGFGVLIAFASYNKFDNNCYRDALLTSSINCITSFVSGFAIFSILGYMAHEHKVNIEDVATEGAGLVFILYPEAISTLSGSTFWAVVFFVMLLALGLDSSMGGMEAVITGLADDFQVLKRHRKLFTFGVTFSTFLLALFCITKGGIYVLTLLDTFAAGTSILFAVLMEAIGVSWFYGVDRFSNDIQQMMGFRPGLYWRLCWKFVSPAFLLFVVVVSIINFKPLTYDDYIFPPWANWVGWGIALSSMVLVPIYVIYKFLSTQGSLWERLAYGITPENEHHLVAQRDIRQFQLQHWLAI

| SMILES | Ratio IC50 [1] | inhibition [2] [%] | IC50 [3] [nM] | inhibition [4] [%] | inhibition [5] [%] | IC50 [6] [nM] | inhibition [7] [%] |
| --- | --- | --- | --- | --- | --- | --- | --- |
| CNCCC(c1ccccc1)n1ccc2ccccc21 (centres undefined) | 7 | – | – | – | – | – | – |
| CCn1c(=O)n([C@H](CCNC)c2cccc(F)c2)c2c(F)cccc21 | – | 14 | 19 | 28 | – | – | – |
| CNCC[C@H](c1ccccc1)n1c(=O)n(C(C)C)c2ccccc21 | 450 | 11 | 22 | 2 | 53 | – | – |
| CNCC[C@@H](c1ccccc1)n1c(=O)n(-c2ccccc2)c2ccccc21 | – | 23 | 215 | – | – | 273 | – |
| CNCC[C@H](c1ccccc1)n1c(=O)n(-c2ccccc2F)c2cccc(F)c21 | 80 | – | 6 | – | – | 483 | – |
| CC(C)n1c(=O)n([C@H](CCN(C)C)c2ccccc2)c2c(F)cccc21 | – | – | – | – | – | – | 27 |
| CNCC[C@@H](c1ccccc1)n1c(=O)n(C2CC2)c2ccccc21 | – | – | – | – | – | – | 25 |
| CNCC[C@H](c1ccccc1)n1c(=O)sc2ccccc21 | 16 | 36 | 121 | – | – | 1910 | – |
| CNCC[C@H](c1ccccc1)n1c(=O)n(C(C)C)c2cccc(F)c21 | 40 | 5 | 30 | – | – | 1210 | – |
| CNCC[C@H](c1ccccc1)n1c(=O)n(C2CC2)c2ccccc21 | 28 | 7 | 166 | – | – | 4570 | – |
| CNCC[C@H](c1ccccc1)n1c(=O)n(-c2ccccc2)c2ccccc21 | 333 | 33 | 9 | – | – | 3000 | – |
| CNCC[C@H](c1ccccc1)n1c(=O)n(C)c2ccccc21 | – | 12 | 463 | 10 | – | – | – |
| CNCC[C@H](c1ccccc1)n1c(=O)n(C2CCCCC2)c2ccccc21 | – | 24 | 311 | 20 | – | – | – |
| CCCn1c(=O)n([C@H](CCNC)c2ccccc2)c2ccccc21 | 97 | 3 | 32 | – | – | 3100 | – |
| CCn1c(=O)n([C@H](CCN)c2ccccc2)c2ccccc21 | – | – | – | – | – | – | 51 |
| CNCC[C@@H](c1ccccc1)n1c(=O)n(C(C)C)c2cccc(F)c21 | – | 31 | 1050 | – | – | 1410 | – |
| CCNCC[C@H](c1ccccc1)n1c(=O)n(CC)c2ccccc21 | – | – | – | – | – | – | 27 |
| CNCC[C@H](c1ccccc1)n1c(=O)n(C2CCCC2)c2ccccc21 | – | 22 | 201 | 16 | – | – | – |
| CCn1c(=O)n([C@H](CCNC)c2ccccc2)c2ccccc21 | 98 | 4 | 44 | – | – | 4310 | – |
| CNCC[C@@H](c1ccccc1)n1c(=O)n(C(C)C)c2ccccc21 | – | – | – | – | – | – | 21 |
| CCCn1c(=O)n([C@@H](CCNC)c2ccccc2)c2ccccc21 | – | 5 | 627 | – | – | 166 | – |

From ChEMBL document CHEMBL1152153, “Synthesis and activity of novel 1- or 3-(3-amino-1-phenyl propyl)-1,3-dihydro-2H-benzimidazol-2-ones as selective norepinephrine reuptake inhibitors” (Bioorg Med Chem Lett, 2008)
